In one series the target is T1, h-P2X2 (Homo sapiens, UniProt Q9UBL9).
T1 sequence (Q9UBL9 1-471): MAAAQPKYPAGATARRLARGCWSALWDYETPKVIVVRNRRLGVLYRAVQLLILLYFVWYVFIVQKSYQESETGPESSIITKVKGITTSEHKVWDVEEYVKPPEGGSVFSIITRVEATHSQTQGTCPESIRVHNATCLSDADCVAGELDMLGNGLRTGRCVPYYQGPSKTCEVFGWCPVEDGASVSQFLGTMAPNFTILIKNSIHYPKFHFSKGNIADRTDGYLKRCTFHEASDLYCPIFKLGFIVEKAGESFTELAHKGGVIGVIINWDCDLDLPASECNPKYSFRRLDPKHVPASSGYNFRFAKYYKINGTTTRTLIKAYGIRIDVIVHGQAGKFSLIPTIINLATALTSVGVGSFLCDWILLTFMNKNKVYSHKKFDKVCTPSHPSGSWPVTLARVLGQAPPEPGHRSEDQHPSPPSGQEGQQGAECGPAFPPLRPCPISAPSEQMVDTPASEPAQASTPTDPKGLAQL
The series is described as follows: Ca2+ flux assay h-P2X2. As to conditions: for inhibition at 50 µM: read-out: h-P2X2 % Inhibition; for IC50: read-out: h-P2X2 IC50 ± SEM, Ca2+ flux, n = 3. For orientation: Calcium flux is commonly read through the fluorescence of an indicator in the cells.

Series [1] can be described thus: MTT cytotoxicity assay, human 1321N1 astrocytoma cell line. Format: cell-based. As to conditions: human, 1321N1 astrocytoma cells, final concentration of 50 μM. The method, then:
(§1) Cellular safety profiling of adamantane thioureas were done through MTT assay. All compounds were analyzed for toxicity at final concentration of 50 μM. […] Toxicity was determined against two cancer cell lines including human 1321N1 Astrocytoma cell line, HeLa cell line and a normal HEK-293 cell line.
(§2) c. Cell Viability Assay (MTT Assay)
(§3) After 24 h of incubation at 37° C. in CO2 incubator, culture media will be replaced with serum-free media along with test compounds and re-incubate. After 24 h, media will be removed and add 100 μL of MTT reagent (0.5-5 mg/mL) and will be incubated for a further 4 h, at 37° C. Absorbance will be measured at 570 and 630 nm to calculate cell viability.
On the technique in general: Tetrazolium dyes change colour on reduction, which living cells bring about.

Series [2] can be described thus: MTT cytotoxicity assay, HEK-293 cell line. In kind it is cell-based. As to conditions: human, HEK-293 cells, final concentration of 50 μM. As for the experimental part:
as §1, §2, §3

Another series addresses T2, h-P2X4 (Homo sapiens, UniProt Q99571).
T2 sequence (Q99571 1-388): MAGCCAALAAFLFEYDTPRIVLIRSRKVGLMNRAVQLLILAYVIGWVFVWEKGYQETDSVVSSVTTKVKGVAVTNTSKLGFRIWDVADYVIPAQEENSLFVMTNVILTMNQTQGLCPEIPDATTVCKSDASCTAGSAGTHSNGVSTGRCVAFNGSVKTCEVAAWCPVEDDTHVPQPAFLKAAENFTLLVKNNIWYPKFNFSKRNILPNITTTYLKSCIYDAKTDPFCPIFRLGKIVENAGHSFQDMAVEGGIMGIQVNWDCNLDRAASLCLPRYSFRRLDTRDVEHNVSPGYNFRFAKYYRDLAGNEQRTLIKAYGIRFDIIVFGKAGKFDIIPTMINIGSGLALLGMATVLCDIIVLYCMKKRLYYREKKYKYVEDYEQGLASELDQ
Nature of the series: Ca2+ flux assay h-P2X4. The conditions noted are these: for inhibition at 50 µM: read-out: h-P2X4 % Inhibition.

In another series the target is h-P2X5 (Homo sapiens, UniProt Q93086). The series is described as follows: Ca2+ flux assay h-P2X5. The conditions noted are these: for inhibition at 50 µM: read-out: h-P2X5 % Inhibition.
The target in another series is T3, h-P2X7 (Homo sapiens, UniProt Q99572).
T3 sequence (Q99572 1-595): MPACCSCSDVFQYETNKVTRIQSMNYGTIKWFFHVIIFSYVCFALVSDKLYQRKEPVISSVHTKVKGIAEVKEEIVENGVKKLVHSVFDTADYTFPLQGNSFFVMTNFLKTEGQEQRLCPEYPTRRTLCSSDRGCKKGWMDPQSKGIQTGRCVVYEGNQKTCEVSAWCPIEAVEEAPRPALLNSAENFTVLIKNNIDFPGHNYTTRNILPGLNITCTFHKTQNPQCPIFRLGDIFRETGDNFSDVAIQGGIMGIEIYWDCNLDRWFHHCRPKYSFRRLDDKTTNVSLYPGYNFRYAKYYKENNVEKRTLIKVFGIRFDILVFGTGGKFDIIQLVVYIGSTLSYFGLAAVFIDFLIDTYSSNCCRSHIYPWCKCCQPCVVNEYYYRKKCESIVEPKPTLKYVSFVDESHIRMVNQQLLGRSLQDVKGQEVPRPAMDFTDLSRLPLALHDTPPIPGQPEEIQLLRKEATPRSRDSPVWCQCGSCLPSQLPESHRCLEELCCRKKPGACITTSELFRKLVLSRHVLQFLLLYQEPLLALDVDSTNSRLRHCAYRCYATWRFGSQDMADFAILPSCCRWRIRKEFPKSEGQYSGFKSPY
The series is described as follows: Ca2+ flux assay h-P2X7. The conditions noted are these: for inhibition at 50 µM: read-out: h-P2X7 % Inhibition.

Series [3] can be described thus: MTT cytotoxicity assay, HeLa cell line. Format: cell-based. The conditions noted are these: human, HeLa cells, final concentration of 50 μM. As for the experimental part:
as §1, §2, §3

The mark [4] stands for this setting: read-out: h-P2X4 IC50 ± SEM, Ca2+ flux, n = 3.
[5] abbreviates: read-out: h-P2X7 IC50 ± SEM, Ca2+ flux, n = 3.

Read-outs that look alike come from different tables or passages of the source.

Broadly, the inhibition is the share of the control response that was lost under treatment. For orientation: IC50 means the concentration at which inhibition is half-maximal.

h-P2X5, sequence (Q93086 whole entry): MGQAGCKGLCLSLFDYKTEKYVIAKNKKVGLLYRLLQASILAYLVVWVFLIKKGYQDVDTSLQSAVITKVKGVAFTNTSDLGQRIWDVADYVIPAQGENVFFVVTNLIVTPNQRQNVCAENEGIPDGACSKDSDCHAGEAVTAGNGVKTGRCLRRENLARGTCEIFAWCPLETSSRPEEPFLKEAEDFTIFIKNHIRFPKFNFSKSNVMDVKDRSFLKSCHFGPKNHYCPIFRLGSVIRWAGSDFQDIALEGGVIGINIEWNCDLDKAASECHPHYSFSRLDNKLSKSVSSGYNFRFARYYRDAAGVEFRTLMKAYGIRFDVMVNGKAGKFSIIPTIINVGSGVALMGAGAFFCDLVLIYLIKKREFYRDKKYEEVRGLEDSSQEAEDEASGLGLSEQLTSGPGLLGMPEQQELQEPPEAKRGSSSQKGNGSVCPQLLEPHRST
Protocol for h-P2X2: (§4) Compounds were initially analyzed at a final concentration of about 50 μM and percentage of inhibition was calculated.
(§5) Calcium Mobilization Assay to Measure P2X Receptors Response Cell Culture: P2X receptors functions can be analyzed from ATP-induced increase in cytosolic Ca^2+ concentration. Two Ca^2+ chelating dyes, Fura-2 AM and Fluo-4 AM can be used to determine the intracellular Ca^2+ concentration through a fluorescent imaging micro-titer plate reader (BMG Labtech: FLUOstar Galaxy®). Non-transfected human 1321N1 astrocytoma cells, as well as P2X receptors transfected human 1321N1 astrocytoma cells will be cultured in T-75 cm^2 cell culture flask having appropriate cell culture growth media; Dulbecco's Modified Eagle's medium (DMEM) supplemented with 10% fetal bovine serum (FBS), 75 μg/mL of Hygromycin B or human P2X receptors transfected cell lines and 1% pen-strep (antibiotics). Cells will be incubated at 37° C. in 5% CO2 incubator until 80 to 90% cell confluency will be achieved. Cells will be maintained in an exponential growth phase throughout the experiment and closely monitored for contamination.
Measurement of Ca^2+ Flux
(§6) When 1321N1 cells will reach 80 to 90% of confluency, cells will be harvested from T-75 cm^2 flask by trypsinization. After washing the cells with phosphate buffer saline (PBS), cells will be seeded at a density of 20,000 cells/well in black, clear bottom, poly-D-lysine coated 96 well plate. After 16 to 24 h, cell culture media will be removed and add Hank's balanced salt solution (HBSS) containing 3 μM Ca^2+ chelating dyes Fura-2 AM or Fluo-4 AM. After 1 h of incubation at 23° C., the loading dye solution will be removed, and added seven to eight dilutions of test compounds in triplicate format. ATP (at a concentration value of EC80) or buffer will be added and measured the excitation and emission at 340/520 nm and 380/520 nm through FLUOStar Galaxy®. Assay volume for the experiment will be 200 μL. IC50 and EC50 values will be calculated by PRISM 5.0 (GrapgPad, San Diego, Calif., USA) through non-linear regression analysis.
Protocol for h-P2X4: as §4, §5
Measurement of Ca^2+ Flux
as §6
Protocol for h-P2X5: as §4, §5
Measurement of Ca^2+ Flux
as §6
Protocol for h-P2X7: as §4, §5
Measurement of Ca^2+ Flux
as §6

As to `O=C(NC(=S)Nc1ccccc1O)C12CC3CC(CC(C3)C1)C2` [Ia, N-((2-hydroxyphenyl)carbamothioyl)adamantane-1-carboxamide], the inhibition at 50 µM at h-P2X2 was 32.6%; at h-P2X5, 40.6%. The figures for the cytotoxicity at 24 h, 50 µM in series [1], in series [2] and in series [3] were 10.3%, 26.6% and 13.1%, respectively. For the same compound, the values for the IC50 on h-P2X4 (setting [4]) and on h-P2X7 (setting [5]) were 1.08 ± 0.02 µM and 1.47 ± 0.09 µM, respectively.
In the case of `O=C(NC(=S)Nc1cccc(O)c1)C12CC3CC(CC(C3)C1)C2` [Ib, N-((3-hydroxyphenyl)carbamothioyl)adamantane-1-carboxamide], the inhibition at 50 µM was 32.6% at h-P2X2, 36.7% on h-P2X4, 43.6% on h-P2X5 and 19.1% on h-P2X7. Also, the figures for the cytotoxicity at 24 h, 50 µM in series [1], in series [2] and in series [3] were 5.67%, 6.95% and 11%, respectively.
In the case of `O=C(NC(=S)Nc1ccc(O)cc1)C12CC3CC(CC(C3)C1)C2` [Ic, N-((4-hydroxyphenyl)carbamothioyl)adamantane-1-carboxamide], the inhibition at 50 µM at h-P2X2 was 37.9%; on h-P2X4 it was 32.4%; on h-P2X5, 33.2%. The figures for the cytotoxicity at 24 h, 50 µM in series [1], in series [2] and in series [3] were 19%, 3.02% and 8.66%, respectively. For the same compound, at h-P2X7 (setting [5]), the IC50 was found to be 1.4 ± 0.18 µM.
For `O=C(NC(=S)Nc1cc(Cl)c(O)c(Cl)c1)C12CC3CC(CC(C3)C1)C2` [Id, N-((3,5-dichloro-4-hydroxyphenyl)carbamothioyl)adamantane-1-carboxamide], the IC50 turned out to be 1.06 ± 0.05 µM on h-P2X2, 1.28 ± 0.11 µM at h-P2X4 (setting [4]) and 3.4 ± 0.4 µM at h-P2X5. Moreover, the cytotoxicity at 24 h, 50 µM in series [1] stood at 6.18%; in series [2], 1.06%; in series [3], 5.4%.
Turning to `O=C(NC(=S)Nc1cc(Br)c(O)c(C(F)(F)F)c1)C12CC3CC(CC(C3)C1)C2` [Ie, N-((3-bromo-4-hydroxy-5-(trifluoromethyl)phenyl)carbamothioyl)adamantane-1-carboxamide], the inhibition at 50 µM at h-P2X2 worked out at 30.5%; at h-P2X5 it was 20.4%. Moreover, the cytotoxicity at 24 h, 50 µM in series [1] amounted to 5.37%; in series [2], 6.85%; in series [3], 11.9%. Also, the IC50 against h-P2X4 turned out to be 4.53 ± 0.39 µM; on h-P2X7, 4.02 ± 0.64 µM.
Turning to `NS(=O)(=O)c1cccc(NC(=S)NC(=O)C23CC4CC(CC(C4)C2)C3)c1` [Ig, N-((3-sulfamoylphenyl)carbamothioyl)adamantane-1-carboxamide], the inhibition at 50 µM at h-P2X2 came to 18.1%; on h-P2X5 it was 42.5%. Further, the figures for the cytotoxicity at 24 h, 50 µM in series [1], in series [2] and in series [3] were 12.9%, 3.77% and 12.5%, respectively. Moreover, the IC50 was found to be 4.19 ± 0.23 µM against h-P2X4 and 0.829 ± 0.12 µM against h-P2X7.
In the case of `O=C(NC(=S)Nc1cc([N+](=O)[O-])ccc1Cl)C12CC3CC(CC(C3)C1)C2` [Ih, N-((2-chloro-5-nitrophenyl)carbamothioyl)adamantane-1-carboxamide], the results for the IC50 on h-P2X2, on h-P2X4 (setting [4]) and at h-P2X7 (setting [5]) were 4.58 ± 0.21 µM, 1.29 ± 0.09 µM and 2.53 ± 0.72 µM, respectively. In addition, the figures for the cytotoxicity at 24 h, 50 µM in series [1], in series [2] and in series [3] were 20.5%, 24.6% and 8.66%, respectively. Further, the inhibition at 50 µM on h-P2X5 is 32.1%.
On to `COc1cccc(NC(=S)NC(=O)C23CC4CC(CC(C4)C2)C3)c1` [Ii, N-((3-methoxyphenyl)carbamothioyl)adamantane-1-carboxamide], for which the IC50 at h-P2X2 came out at 2.31 ± 0.31 µM. Also, the values for the cytotoxicity at 24 h, 50 µM in series [1], in series [2] and in series [3] were 6.53%, 20.7% and 18.1%, respectively. Also, the inhibition at 50 µM was determined as 38% on h-P2X4, 44% on h-P2X5 and 15.1% on h-P2X7.
Consider `COc1ccc(NC(=S)NC(=O)C23CC4CC(CC(C4)C2)C3)cc1` [Ij, N-((4-methoxyphenyl)carbamothioyl)adamantane-1-carboxamide], for which the IC50 at h-P2X2 was found to be 5.24 ± 0.32 µM. Besides, the cytotoxicity at 24 h, 50 µM in series [1] was 4.56%; in series [2], 10.6%; in series [3] it was 8.01%. In addition, the inhibition at 50 µM at h-P2X4 was found to be 44.9%; at h-P2X5 it was 44.5%; at h-P2X7, 29.4%.
Take `COc1ccc(NC(=S)NC(=O)C23CC4CC(CC(C4)C2)C3)cc1OC` [Ik, N-((3,4-dimethoxyphenyl)carbamothioyl)adamantane-1-carboxamide]: the IC50 amounted to 0.732 ± 0.01 µM on h-P2X2, 3.46 ± 0.4 µM at h-P2X4 (setting [4]), 1.48 ± 0.23 µM on h-P2X5 and 4.9 ± 1.04 µM on h-P2X7 (setting [5]). Further, the cytotoxicity at 24 h, 50 µM in series [1] is 19.4%; in series [2], 7.2%; in series [3] it was 14.3%.
`O=C(NC(=S)Nc1ccc(Br)cc1)C12CC3CC(CC(C3)C1)C2` [Il, N-((4-bromophenyl)carbamothioyl)adamantane-1-carboxamide]: the inhibition at 50 µM was determined as 36% on h-P2X2, 46.8% on h-P2X4 and 47.7% on h-P2X5. Besides, the cytotoxicity at 24 h, 50 µM in series [1] is 15.4%; in series [2] it was 18.7%; in series [3], 7.19%. The IC50 at h-P2X7 (setting [5]) was found to be 8.8 ± 1.12 µM.
`Cc1ccc(NC(=S)NC(=O)C23CC4CC(CC(C4)C2)C3)c(Br)c1` [Im, N-((2-bromo-4-methylphenyl)carbamothioyl)adamantane-1-carboxamide]: the IC50 on h-P2X2 is 4.85 ± 0.32 µM; on h-P2X4 (setting [4]), 1.56 ± 0.21 µM; against h-P2X5, 6.04 ± 1.2 µM; at h-P2X7 (setting [5]), 3.71 ± 0.78 µM. Also, the cytotoxicity at 24 h, 50 µM in series [1] was found to be 7.29%; in series [2], 18.9%; in series [3] it was 15.4%.
In the case of `Cc1ccc(C(=O)Nc2ccc(S(=O)(=O)O)c3cc(S(=O)(=O)O)cc(S(=O)(=O)O)c23)cc1NC(=O)c1cccc(NC(=O)Nc2cccc(C(=O)Nc3cc(C(=O)Nc4ccc(S(=O)(=O)O)c5cc(S(=O)(=O)O)cc(S(=O)(=O)O)c45)ccc3C)c2)c1` [Suramin, reference compound], the IC50 at h-P2X2 worked out at 13.45 ± 0.11 µM; at h-P2X4 (setting [4]) it was 5.64 ± 0.04 µM; on h-P2X5 (read-out: h-P2X5 IC50 ± SEM, Ca2+ flux, n = 3) it was 16.1 ± 0.5 µM. Moreover, the cytotoxicity at 24 h, 50 µM in series [1] came to 18.6%; in series [2], 48%; in series [3] it was 21.7%.
